Target: Mitogen-activated protein kinase kinase kinase kinase 1 (Homo sapiens, UniProt Q92918)
Test: HPK1-SLP76 TR-FRET ASSAY
Procedure: Compounds are serially diluted (3-fold in 100% DMSO) across a 384-well polypropylene source plated from column 3 to column 12 and column 13 to column 22, to yield 10 concentration dose responses for each test compound. Columns 1, 2, 23 and 24 contain either only DMSO or a pharmacological known control inhibitor. […] Enzyme, Substrate and Stop/Detection solutions are prepared in assay buffer. […] Kinase reaction is initiated with addition of 2.5 μL of substrate solution (ATP 10uM and SLP7610 nM Final) and allowed to proceed for 60 minutes. […] Plates are incubated at room temperature for 30 minutes. Reactions are initiated by addition of 2.5 μL of 3x substrate solution (10 nM SLP76 and 10 uM ATP FInal) using BioRaptr. Plates are incubated at room temperature for one hour.

Mitogen-activated protein kinase kinase kinase kinase 1, sequence (Q92918 whole entry): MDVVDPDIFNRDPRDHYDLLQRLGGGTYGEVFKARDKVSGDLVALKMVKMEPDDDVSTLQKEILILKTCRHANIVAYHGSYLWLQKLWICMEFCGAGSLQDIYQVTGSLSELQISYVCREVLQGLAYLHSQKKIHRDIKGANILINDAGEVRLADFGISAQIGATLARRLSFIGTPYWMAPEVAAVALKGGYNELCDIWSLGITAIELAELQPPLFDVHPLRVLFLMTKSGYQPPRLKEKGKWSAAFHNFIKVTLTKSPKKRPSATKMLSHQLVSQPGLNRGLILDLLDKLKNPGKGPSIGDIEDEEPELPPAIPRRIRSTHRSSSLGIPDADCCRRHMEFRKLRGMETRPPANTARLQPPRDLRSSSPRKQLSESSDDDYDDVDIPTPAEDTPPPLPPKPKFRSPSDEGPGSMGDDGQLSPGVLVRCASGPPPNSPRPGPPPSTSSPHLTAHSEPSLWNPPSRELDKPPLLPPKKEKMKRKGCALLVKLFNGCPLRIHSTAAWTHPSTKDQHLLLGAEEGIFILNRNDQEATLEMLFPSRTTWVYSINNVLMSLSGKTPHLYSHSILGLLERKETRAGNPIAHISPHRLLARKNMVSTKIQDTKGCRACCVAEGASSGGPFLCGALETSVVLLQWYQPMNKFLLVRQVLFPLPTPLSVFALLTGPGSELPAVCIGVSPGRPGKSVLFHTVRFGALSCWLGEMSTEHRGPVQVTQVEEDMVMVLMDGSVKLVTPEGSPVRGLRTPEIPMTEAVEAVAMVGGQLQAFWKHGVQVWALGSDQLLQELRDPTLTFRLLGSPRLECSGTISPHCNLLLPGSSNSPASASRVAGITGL

IC50 [nM]	Compound
0.17	COc1cc2c(cc1Nc1ncc(C(N)=O)c(Nc3ccc(C)cc3C3CC3)n1)CN(C)CC2 [WO2022098809, Example 4-26]
0.26	COc1cc2c(cc1Nc1ncc(C(N)=O)c(Nc3ccc(C)cc3C(C)(C)C)n1)CN(C)CC2 [WO2022098809, Example 4-28]
0.2	Cc1cc(F)c(Nc2nc(Nc3cc4c(cc3F)CCN(C)C4)ncc2C(N)=O)c(C(F)(F)F)c1 [WO2022098809, Example 4-29]
158	Cc1cccc(F)c1Nc1nc(Nc2c(C)nn(C)c2C)ncc1C(N)=O [WO2022098809, Example 4-35]
0.08	CCc1cc(C)ccc1Nc1nc(Nc2cc3c(cc2OC)CCN(C)C3)ncc1C(N)=O [WO2022098809, Example 4-27]
1.13	CN1CCc2cc(F)c(Nc3ncc(C(N)=O)c(Nc4c(F)ccc5c4OC(C)(C)C5)n3)cc2C1 [WO2022098809, Example 4-32]
0.2	COc1cc2c(cc1Nc1ncc(C(N)=O)c(Nc3c(F)cccc3CC(F)F)n1)CN(C)CC2 [WO2022098809, Example 4-31]

From BindingDB's records for patent WO2022098809 (Merck Sharp &Amp, 2022)
